Test results published in patent publication US20260325654A1, “METHODS AND COMPOSITIONS FOR TARGETED PROTEIN DEGRADATION” (Ranok Therapeutics (Hangzhou) Co. Ltd., priority 2023, published 2026).
Counter-ions that a name gives are not always drawn.

How the values were obtained:
Assay type in all cases: cell-based, human
NCIH727 = assay: CellTiter-Glo Reagent cancer cell line proliferation assay, NCIH727; conditions: NCIH727, KRAS(G12V) heterozygous
From the text: (§1) The following cancer cell lines were employed: • AsPC-1 human pancreatic adenocarcinoma, homozygous KRAS(G12D), (ATCC, #CRL-1682); A-427 human lung carcinoma, heterozygous KRAS(G12D), (ATCC, #HTB-53); AGS human gastric adenocarcinoma, heterozygous KRAS(G12D), (ATCC, #CRL-1739); GP2D human colon adenocarcinoma, heterozygous KRAS(G12D), (Sigma Aldrich, 95090714); SW1990 human pancreatic adenocarcinoma, homozygous KRAS(G12D), (ATCC, #CRL2172); LU65A human lung giant cell carcinoma, heterozygous KRAS(G12C), (JCRB Cell Bank, #JCRB0054); NCIH727 human lung carcinoid, heterozygous KRAS(G12V), (ATCC, #CRL-5815); MKN1 human gastric adenosquamous carcinoma KRAS (wt), (JCRB Cell Bank, #JCRB0252). Cell lines were cultured according to ATCC, JCRB and Sigma Aldrich recommendations.
(§2) Cells were plated in 96-well tissue culture plates at 4,000 cells/well and incubated at 37° C./5% CO2 for 24 hr in 100 μl of media. 3-fold serial dilutions of each test compound were prepared ranging from 20 μM to 1.02 nM. Cells were then treated with test compounds at various concentrations with a final concentration of 0.5% DMSO/well, and then incubated at 37° C./5% CO2 for 24 hr. 100 μl of CellTiter-Glo® Reagent (Promega Corporation, Madison, WI) was added to each well and processed according manufacturer's protocol. Results were analyzed and IC50-values were calculated in GraphPad 7 software.

LU65A = assay: CellTiter-Glo Reagent cancer cell line proliferation assay, LU65A; conditions: KRAS(G12C) heterozygous
From the text: as §1, §2

AGS = assay: CellTiter-Glo Reagent cancer cell line proliferation assay, AGS; conditions: KRAS(G12D) heterozygous
From the text: as §1, §2

| Structure (SMILES) | IC50 (NCIH727; Homo sapiens, NCI-H727, 24 h) | IC50 (LU65A; Homo sapiens, 24 h) | IC50 (AGS; Homo sapiens, 24 h) | IC50 (NCIH727; 24 hr) | IC50 (LU65A; 24 hr) | IC50 (AGS; 24 hr) |
| --- | --- | --- | --- | --- | --- | --- |
| C#Cc1c(F)ccc2cc(O)cc(-c3nc(OC)c4c(N5CCCO[C@H]6C[C@H]65)nc(OCC5(CN6CCN(CC7CCN(c8ccc9c(c8)CN(C8CCC(=O)NC8=O)C9=O)CC7)CC6)CC5)nc4c3F)c12 (stereo partly shown) [Compound 164] | < 0.1 µM | < 0.1 µM | < 0.1 µM |  |  |  |
| C#Cc1c(F)ccc2cc(O)cc(-c3ncc4c(N5CC6CCC(C5)N6C(=O)CC(C)(C)C#N)nc(OCC5(CN6CCN(CC7CCN(c8ccc9c(c8)CN(C8CCC(=O)NC8=O)C9=O)CC7)CC6)CC5)nc4c3F)c12 (stereo not shown) [Compound 131] | < 0.1 µM | < 0.1 µM | < 0.1 µM |  |  |  |
| C#Cc1c(F)ccc2cc(O)cc(-c3ncc4c(N5CCCOC6CC65)nc(OCC5(CN6CCN(CC7CCN(c8ccc9c(c8)CN(C8CCC(=O)NC8=O)C9=O)CC7)CC6)CC5)nc4c3F)c12 (stereo not shown) [Compound 139] | > 1 µM | > 1 µM | > 1 µM |  |  |  |
| C#Cc1c(F)ccc2cc(O)cc(-c3nc(OC)c4c(N5CC6CCC(C5)N6C(=O)CC(C)C#N)nc(OCC5(CN6CCN(CC7CCN(c8cccc(NC9CCC(=O)NC9=O)c8)CC7)CC6)CC5)nc4c3F)c12 (stereo not shown) [Compound 142] | < 0.1 µM | < 0.1 µM | < 0.1 µM |  |  |  |
| C#Cc1c(F)ccc2cc(O)cc(-c3nc(OC)c4c(N5CC6CCC(C5)N6C(=O)CC(C)C#N)nc(OCC5(CN6CCN(CC7CCN(c8ccc9c(N%10CCC(=O)NC%10=O)nn(C)c9c8)CC7)CC6)CC5)nc4c3F)c12 (stereo not shown) [Compound 152] | < 0.1 µM | < 0.1 µM | < 0.1 µM |  |  |  |
| C#Cc1c(F)ccc2cc(O)cc(-c3nc(OC)c4c(N5CC6CCC(C5)N6C(=O)CCC#N)nc(OCC5(CN6CCN(CC7CCN(c8ccc9c(N%10CCC(=O)NC%10=O)nn(C)c9c8)CC7)CC6)CC5)nc4c3F)c12 [Compound 159] | < 0.1 µM | < 0.1 µM | < 0.1 µM |  |  |  |
| C#Cc1c(F)ccc2cc(O)cc(-c3nc(OC)c4c(N5CCCOCC5)nc(OCC5(CN6CCN(CC7CCN(c8ccc9c(c8)CN(C8CCC(=O)NC8=O)C9=O)CC7)CC6)CC5)nc4c3F)c12 (stereo not shown) [Compound 127] | < 0.1 µM | < 0.1 µM | < 0.1 µM |  |  |  |
| C#Cc1c(F)ccc2cc(O)cc(-c3nc(OC)c4c(N5CC6CCC(C5)N6C(=O)CCC#N)nc(OCC5(CN6CCC(CN7CCC(N8Cc9cc%10c(cc9C8)C(=O)N(C8CCC(=O)NC8=O)C%10)CC7)CC6)CC5)nc4c3F)c12 (stereo not shown) [Compound 163] | < 0.1 µM | < 0.1 µM | < 0.1 µM |  |  |  |
| C#Cc1c(F)ccc2cc(O)cc(-c3nc(OC)c4c(N5CC6CCC(C5)N6C(=O)CC(C)C#N)nc(OCC5CCCN(CC6CCN(c7ccc8c(c7)CN(C7CCC(=O)NC7=O)C8=O)CC6)C5)nc4c3F)c12 (stereo not shown) [Compound 146] | < 0.1 µM | < 0.1 µM | < 0.1 µM |  |  |  |
| C#Cc1c(F)ccc2cc(O)cc(-c3nc(OC)c4c(N5CC6CCC(C5)N6C(=O)C[C@@H](C)C#N)nc(OCC5(CN6CCN(CC7CCN(c8ccc9c(c8)CN(C8CCC(=O)NC8=O)C9=O)CC7)CC6)CC5)nc4c3F)c12 (stereo partly shown) [Compound 143] | < 0.1 µM | < 0.1 µM | < 0.1 µM |  |  |  |
| C#Cc1c(F)ccc2cc(O)cc(-c3nc(OC(F)(F)F)c4c(N5CC6CCC(C5)N6C(=O)CCC#N)nc(OCC5(CN6CCN(CC7CCN(c8ccc9c(c8)CN(C8CCC(=O)NC8=O)C9=O)CC7)CC6)CC5)nc4c3F)c12 (stereo not shown) [Compound 151] | < 0.1 µM | < 0.1 µM | < 0.1 µM |  |  |  |
| C#Cc1cccc2cccc(-c3ncc4c(N5CC6CCC(C5)N6)nc(OCCN5CCN(Cc6ccc7c(c6)C(=O)N(C6CCC(=O)NC6=O)C7=O)CC5)nc4c3F)c12 (stereo not shown) [Compound 1, 5-((4-(2-((4-(3,8-diazabicyclo[3.2.1]octan-3-yl)-7-(8-ethynylnaphthalen-1-yl)-8-fluoropyrido[4,3-d]pyrimidin-2-yl)oxy)ethyl)piperazin-1-yl)methyl)-2-(2,6-dioxopiperidin-3-yl) isoindoline-1,3-dione hydrochloride] |  |  | > 1 µM |  |  |  |
| C#Cc1c(F)ccc2cc(O)cc(-c3nc(OC)c4c(N5CCCO[C@@H]6C[C@@H]65)nc(OCC5(CN6CCN(CC7CCN(c8ccc9c(c8)CN([C@H]8CCC(=O)NC8=O)C9=O)CC7)CC6)CC5)nc4c3F)c12 [Compound 165] | < 0.1 µM | < 0.1 µM | < 0.1 µM |  |  |  |
| C#Cc1c(F)ccc2cc(O)cc(-c3nc(OC)c4c(N5CC6CCC(C5)N6C(=O)CC(C)C#N)nc(OCC5(CN6CCN(C[C@H]7CCN(c8ccc9c(c8)CN(C8CCC(=O)NC8=O)C9=O)C[C@@H]7F)CC6)CC5)nc4c3F)c12 (stereo partly shown) [Compound 154] | < 0.1 µM | < 0.1 µM | < 0.1 µM |  |  |  |
| N#CCCC(=O)N1C2CCC1CN(c1nc(OCC3(CN4CCN(CC5CCN(c6ccc7c(c6)CN(C6CCC(=O)NC6=O)C7=O)CC5)CC4)CC3)nc3c(F)c(-c4cc(N)cc(Cl)c4C(F)(F)F)c(Cl)cc13)C2 (stereo not shown) [Compound 153] | < 0.1 µM | < 0.1 µM | < 0.1 µM |  |  |  |
| C#Cc1c(F)ccc2cc(O)cc(-c3ncc4c(N5CC6CCC(C5)N6C(=O)CC(C)C#N)nc(OCC5(CN6CCN(CC7CCN(c8ccc9c(c8)CN(C8CCC(=O)NC8=O)C9=O)CC7)CC6)CC5)nc4c3F)c12 (stereo not shown) [Compound 129] | < 0.1 µM | < 0.1 µM | < 0.1 µM |  |  |  |
| C#Cc1c(F)ccc2cc(O)cc(-c3ncc4c(N5CC6CCC(C5)N6C(=O)CC(C)C#N)nc(OCC5CCCN(CC6CCN(c7ccc8c(c7)CN(C7CCC(=O)NC7=O)C8=O)CC6)C5)nc4c3F)c12 (stereo not shown) [Compound 133] | < 0.1 µM | < 0.1 µM | < 0.1 µM |  |  |  |
| C#Cc1c(F)ccc2cc(O)cc(-c3ncc4c(N5CC6CCC(C5)N6C(=O)NC5CCC5)nc(OCC5(CN6CCN(CC7CCN(c8ccc9c(c8)CN(C8CCC(=O)NC8=O)C9=O)CC7)CC6)CC5)nc4c3F)c12 (stereo not shown) [Compound 128] | < 0.1 µM | < 0.1 µM | < 0.1 µM |  |  |  |
| C#Cc1c(F)ccc2cc(O)cc(-c3ncc4c(N5CC6CCC(C5)N6C(=O)CC(C)C#N)nc(OCC5(CN6CCN(CC7CCN(c8ccc9c(c8)n(C)c(=O)n9C8CCC(=O)NC8=O)CC7)CC6)CC5)nc4c3F)c12 (stereo not shown) [Compound 136] | < 0.1 µM | < 0.1 µM | < 0.1 µM |  |  |  |
| C#Cc1c(F)ccc2cc(O)cc(-c3ncc4c(N5CC6CCC(C5)N6C(=O)CC(C)C#N)nc(OCC5(CN6CC7CC7C6)CC5)nc4c3OCc3ccc(-c4cn([C@H](C(=O)N5C[C@H](O)C[C@H]5C(=O)N[C@@H](CO)c5ccc(-c6ccnn6CC)cc5)C(C)C)nn4)cc3)c12 (stereo partly shown) [Compound 140] |  |  |  | < 0.1 µM | < 0.1 µM | < 0.1 µM |
| C#Cc1c(F)ccc2cc(O)cc(-c3nc(OC)c4c(N5CC6CCC(C5)N6C(=O)C[C@@H](C)C#N)nc(OCC5(CN6CCN(CC7CCN(c8ccc9c(N%10CCC(=O)NC%10=O)nn(C)c9c8)CC7)CC6)CC5)nc4c3F)c12 [Compound 160] | < 0.1 µM | < 0.1 µM | < 0.1 µM |  |  |  |
| C#Cc1c(F)ccc2cc(O)cc(-c3nc(OC)c4c(N5CC6CCC(C5)N6C(=O)CC(C)C#N)nc(OCC5(CN6CCN(CC7CCN(c8ccc9c(c8)CN(C8CCC(=O)NC8=O)C9=O)CC7)CC6)CC5)nc4c3F)c12 (stereo not shown) [Compound 135] | < 0.1 µM | < 0.1 µM | < 0.1 µM |  |  |  |
| C#Cc1c(F)ccc2cc(O)cc(-c3nc(OC)c4c(N5CC6CCC(C5)N6C(=O)C[C@@H](C)C#N)nc(OCC5(CN6CCN(CN7CCC(N8Cc9cc%10c(cc9C8)C(=O)N(C8CCC(=O)NC8=O)C%10)CC7)CC6)CC5)nc4c3F)c12 (stereo partly shown) [Compound 162] | < 0.1 µM | < 0.1 µM | < 0.1 µM |  |  |  |
| C#Cc1c(F)ccc2cc(O)cc(-c3ncc4c(N5CC6CCC(C5)N6C(=O)CC(C)C#N)nc(OCC5(CN6CCN(CC7CCN(c8ccc9c(c8)CN(C8CCC(=O)N(C)C8=O)C9=O)CC7)CC6)CC5)nc4c3F)c12 (stereo not shown) [Compound 130] | 0.1 to 1 µM | 0.1 to 1 µM | 0.1 to 1 µM |  |  |  |
